Measured values published in the supplement of paper PMC11451515.

System: NOMO1
Assay: cell viability relative to DMSO control; higher = less cytotoxic
Conditions: 48 h
Procedure, shortened: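 Viability was expressed as a per-plate percentage of DMSO wells, with cell-free wells as background. Leukemia cells (NOMO1 or SEM at 500 cells/well, P12-Ichikawa at 1000 cells/well) were adapted for at least four passages in each medium and seeded in 1536-well plates (5 μl). Library compounds in DMSO were pin-dosed over an 11-point threefold series from 47 μM to 0.79 nM, and CellTiter-Glo One luminescence was read after 48 h at 37°C.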

[1] = HPLM + 10% dialyzed FBS, 0.000781 µM
[2] = HPLM + 10% dialyzed FBS, 0.00234 µM
[3] = HPLM + 10% dialyzed FBS, 0.00702 µM
[4] = HPLM + 10% dialyzed FBS, 0.0211 µM
[5] = HPLM + 10% dialyzed FBS, 0.0632 µM
[6] = HPLM + 10% dialyzed FBS, 0.19 µM
[7] = HPLM + 10% dialyzed FBS, 0.569 µM
[8] = HPLM + 10% dialyzed FBS, 1.71 µM
[9] = HPLM + 10% dialyzed FBS, 5.12 µM
[10] = HPLM + 10% dialyzed FBS, 15.4 µM
[11] = HPLM + 10% dialyzed FBS, 46.1 µM
[12] = RPMI 5 mM glucose + 10% FBS, 0.000781 µM
[13] = RPMI 5 mM glucose + 10% FBS, 0.00234 µM
[14] = RPMI 5 mM glucose + 10% FBS, 0.00702 µM
[15] = RPMI 5 mM glucose + 10% FBS, 0.0211 µM
[16] = RPMI 5 mM glucose + 10% FBS, 0.0632 µM
[17] = RPMI 5 mM glucose + 10% FBS, 0.19 µM
[18] = RPMI 5 mM glucose + 10% FBS, 0.569 µM
[19] = RPMI 5 mM glucose + 10% FBS, 1.71 µM
[20] = RPMI 5 mM glucose + 10% FBS, 5.12 µM
[21] = RPMI 5 mM glucose + 10% FBS, 15.4 µM
[22] = RPMI 5 mM glucose + 10% FBS, 46.1 µM
[23] = RPMI 5 mM glucose + 10% dialyzed FBS, 0.000781 µM
[24] = RPMI 5 mM glucose + 10% dialyzed FBS, 0.00234 µM
[25] = RPMI 5 mM glucose + 10% dialyzed FBS, 0.00702 µM
[26] = RPMI 5 mM glucose + 10% dialyzed FBS, 0.0211 µM
[27] = RPMI 5 mM glucose + 10% dialyzed FBS, 0.0632 µM
[28] = RPMI 5 mM glucose + 10% dialyzed FBS, 0.19 µM
[29] = RPMI 5 mM glucose + 10% dialyzed FBS, 0.569 µM
[30] = RPMI 5 mM glucose + 10% dialyzed FBS, 1.71 µM
[31] = RPMI 5 mM glucose + 10% dialyzed FBS, 5.12 µM
[32] = RPMI 5 mM glucose + 10% dialyzed FBS, 15.4 µM
[33] = RPMI 5 mM glucose + 10% dialyzed FBS, 46.1 µM

SMILES	cell viability [1] [%]	cell viability [2] [%]	cell viability [3] [%]	cell viability [4] [%]	cell viability [5] [%]	cell viability [6] [%]	cell viability [7] [%]	cell viability [8] [%]	cell viability [9] [%]	cell viability [10] [%]	cell viability [11] [%]	cell viability [12] [%]	cell viability [13] [%]	cell viability [14] [%]	cell viability [15] [%]	cell viability [16] [%]	cell viability [17] [%]	cell viability [18] [%]	cell viability [19] [%]	cell viability [20] [%]	cell viability [21] [%]	cell viability [22] [%]	cell viability [23] [%]	cell viability [24] [%]	cell viability [25] [%]	cell viability [26] [%]	cell viability [27] [%]	cell viability [28] [%]	cell viability [29] [%]	cell viability [30] [%]	cell viability [31] [%]	cell viability [32] [%]	cell viability [33] [%]
COc1c(Cl)cc2c([nH]c3cnccc32)c1NC(=O)c1cccnc1C	115	100	110	105	123	124	122	115	108	102	89.4	99.8	102	98.4	101	101	108	111	108	98.2	102	99	84	105	103	96.1	98.9	105	115	116	98.2	104	101
Cc1c(N)nc([C@H](CC(N)=O)NC[C@@H](N)C(N)=O)nc1C(=O)N[C@H](C(=O)N[C@@H](C)[C@H](O)[C@@H](C)C(=O)N[C@@H](C(=O)NCCc1nc(-c2nc(C(=O)NCCC[S+](C)C)cs2)cs1)[C@@H](C)O)C(O[C@H]1O[C@H](CO)[C@H](O)[C@@H](O)[C@H]1O[C@H]1O[C@H](CO)[C@@H](O)[C@H](OC(N)=O)[C@@H]1O)c1c[nH]cn1 (some centres undefined)	117	112	128	125	121	128	108	74	40.4	57.9	85.9	101	100	95	98.6	110	115	114	71.9	41.1	72.2	79.6	119	117	114	132	113	124	138	127	66	85	86.7
COc1ccccc1[C@H](c1cccc2ccccc12)[C@@](C)(C#N)C(=O)N1CCC(c2cccc(C(F)(F)F)c2)CC1	96.4	109	101	104	115	102	102	93.7	88.6	64.3	39.9	102	96	101	106	99.6	103	99.7	107	97.6	85.2	60.3	100	98.9	98.6	99.3	104	99.9	86.4	86.5	83.1	67.3	53.1
Cc1cc(Nc2ncc3c(n2)N(C)C(=O)N(c2cc(NC(=O)c4cccc(C(F)(F)F)c4)ccc2C)C3)n(C)n1	90.6	134	123	116	134	111	90.5	56.7	32.2	25.9	7.8	99.6	111	132	156	132	130	146	70.6	43.8	29.6	10.7	113	115	123	134	134	132	115	60.2	38.7	32.7	17.7
CNc1nc(-c2ccc3c(N)n[nH]c3c2)cc(N2C[C@@H](C(=O)NC3CCCCC3)CC[C@H]2C)n1	76.9	82.3	79.8	95	94.8	89.2	68.2	64.5	55.9	64.2	17.7	73.9	78	76.2	80.4	89.3	80.3	77.1	84.2	69.9	73.8	19	75.9	91.8	79.2	92.5	90.2	85.5	70.3	70.8	68.2	68.2	29.7
C=CC(=O)Nc1cccc(Sc2nc(Nc3ccc(N4CCN(C)CC4)cc3)ncc2Cl)c1	102	103	101	104	110	109	127	114	117	98.5	24.9	97.3	104	121	104	101	120	109	116	113	119	8.7	95.4	101	97.1	92.1	112	93	98.2	97.5	107	107	11.6
C=CC(=O)Nc1cc2c(Nc3ccc(F)c(Cl)c3)ncnc2cc1C#CC(C)(C)N1CCN(C)CC1	112	109	112	89.9	92	108	117	89.2	55.3	6.12	6.26	95.3	93	91.7	95.4	101	93.5	101	95	94.6	7.56	12.7	99.2	101	107	95.3	86.6	103	101	106	52.7	8.43	5.07
Cc1ccc(C(=O)Nc2cccc(C(F)(F)F)c2)cc1Nc1nc(-c2cccnc2)nc2c1cnn2C	87.4	80.6	97.4	97.6	88.4	104	74	56.5	71.2	67.8	78	83.5	84.8	94.5	77.4	85.1	87.4	77.6	84.9	87.7	73.4	76.4	84.8	86.2	87.6	87.2	90.7	89.1	83.7	77.4	93.8	77.6	85.3
CC1(C)CC\C2=C(/O1)C3=C(C=CC=C3)C(=O)C2=O	123	112	113	101	112	104	103	118	99	98.4	4.14	113	104	115	103	108	111	90.9	107	108	88.2	5.12	109	97.4	109	113	103	102	101	99.9	100	96.3	6.57
CCC(CCCC)COC(=O)C(\C#N)=C(\c1ccccc1)c2ccccc2 (centres undefined)	76.5	102	84	117	101	101	98.5	92.8	107	98.5	107	92.6	91.8	86.2	101	101	93	92.5	104	97.8	109	105	87.4	85.8	84.4	94.6	94	91.7	90.4	91.5	89.1	87.2	96.2
CO[C@@H](C(=O)N1Cc2[nH]nc(NC(=O)c3ccc(N4CCN(C)CC4)cc3)c2C1)c1ccccc1	88	93.2	102	94.2	72.2	62.2	58.6	53.3	54.1	66.8	71.7	80.4	79.4	79.7	83.2	81.5	64.4	51.5	50.9	55.8	53.4	56.3	83.7	87.2	88.5	88.7	71.9	52.5	59.3	47.4	48.9	55.3	54.3
CO[C@H]1CCC(O[C@H]2C[C@H]([C@]3(C)CC[C@]4(C[C@H](O)[C@@H](C)[C@@H]([C@@H](C)/C=C(\C)C(=O)[C@H](C)C[C@H](C)C(=O)[O-])O4)O3)O[C@]3(O[C@@H]([C@H]4O[C@@](O)(CO)[C@H](C)C[C@@H]4C)C[C@@H]3C)[C@@H]2C)O[C@@H]1C (some centres undefined)	112	124	136	109	134	101	118	88.8	84.4	63.7	55.1	123	121	113	122	145	121	124	118	111	97.6	67.7	112	122	133	118	111	114	132	106	48.9	78.2	64.2
C/C1=C2/[N]3[Co+]456([OH])<-[N]7=C1[C@@H](CCC(N)=O)C(C)(C)/C7=C/C1=[N]->4C(=C(/C)C4=[N]->5[C@@](C)([C@H]3[C@H](CC(N)=O)[C@@]2(C)CCC(=O)NC[C@@H](C)OP(=O)([O-])O[C@H]2[C@@H](O)[C@@H](n3c[n]->6c5cc(C)c(C)cc53)O[C@@H]2CO)[C@@](C)(CC(N)=O)[C@@H]4CCC(N)=O)/[C@@](C)(CC(N)=O)[C@@H]1CCC(N)=O	94.9	110	102	103	113	105	100	77.2	87.9	80.4	70.6	95.1	95	87.9	95.4	90.5	90.3	97.3	82.2	81.4	89	75.5	95.6	95.8	101	94.6	90.7	97.7	97.5	91.8	86.1	89.9	72.7
